#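 Briefly, cells in 96-well plates were exposed to five compound concentrations for 48 h, and endpoints were estimated by linear interpolation. TGI marks complete inhibition of growth.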
# Key:
# Assay in all cases: NCI anticancer screen, dose series, 48 h
# [1] = system: CAKI-1 renal
# [2] = system: SK-MEL-28 melanoma
# [3] = system: M14 melanoma
# [4] = system: NCI-H460 lung
# [5] = system: RXF 393 renal
# [6] = system: PC-3 prostate
# [7] = system: MOLT-4 leukemia
# [8] = system: UACC-257 melanoma
# [9] = system: TK-10 renal
# [10] = system: NCI-H23 lung
# [11] = system: HCT-116 colon
# [12] = system: LOX IMVI melanoma
# [13] = system: NCI-H522 lung
# [14] = system: OVCAR-3 ovarian
# [15] = system: SNB-75 CNS
# [16] = system: SK-MEL-5 melanoma
# [17] = system: K-562 leukemia
# [18] = system: NCI-H226 lung
# [19] = system: HCC-2998 colon
# [20] = system: SF-268 CNS
# [21] = system: OVCAR-5 ovarian
# [22] = system: HT29 colon
# [23] = system: UO-31 renal
# [24] = system: SK-MEL-2 melanoma
# [25] = system: SK-OV-3 ovarian
# [26] = system: A549 NSCLC
# [27] = system: NCI/ADR-RES ovarian
# [28] = system: MALME-3M melanoma
# [29] = system: SN12C renal
# [30] = system: SF-539 CNS
# [31] = system: RPMI-8226 leukemia
# [32] = system: CCRF-CEM leukemia
# [33] = system: BT-549 breast
# [34] = system: KM12 colon
# [35] = system: OVCAR-8 ovarian
# [36] = system: A498 renal
# [37] = system: MDA-N
# [38] = system: ACHN renal
# [39] = system: UACC-62 melanoma
# [40] = system: U251 CNS
# [41] = system: HL-60(TB) leukemia
# [42] = system: MDA-MB-435
# [43] = system: OVCAR-4 ovarian
# [44] = system: 786-0 renal
# [45] = system: COLO 205 colon
# [46] = system: HOP-62 NSCLC
# [47] = system: T-47D breast
# [48] = system: SF-295 CNS
# [49] = system: HS 578T breast
# [50] = system: MDA-MB-231 breast
# [51] = system: HOP-92 NSCLC
# [52] = system: EKVX NSCLC
# [53] = system: IGROV1 ovarian
# [54] = system: HCT-15 colon
# [55] = system: SNB-19 CNS
# [56] = system: SW-620 colon
# [57] = system: MCF7 breast
# [58] = system: DU-145 prostate
# [59] = system: SR leukemia
smiles,measurement,setting,value
O=C(O)CCC1COc2ccccc2O1 (stereo not given),TGI,[1],> 10 µM
same,TGI,[2],> 10 µM
same,TGI,[3],> 10 µM
same,TGI,[4],> 10 µM
same,TGI,[5],> 10 µM
same,TGI,[6],> 10 µM
same,TGI,[7],> 10 µM
same,TGI,[8],> 10 µM
same,TGI,[9],> 10 µM
same,TGI,[10],> 10 µM
same,TGI,[11],> 10 µM
same,TGI,[12],> 10 µM
same,TGI,[13],> 10 µM
same,TGI,[14],> 10 µM
same,TGI,[15],> 10 µM
same,TGI,[16],> 10 µM
same,TGI,[17],> 10 µM
same,TGI,[18],> 10 µM
same,TGI,[19],> 10 µM
same,TGI,[20],> 10 µM
same,TGI,[21],> 10 µM
same,TGI,[22],> 10 µM
same,TGI,[23],> 10 µM
same,TGI,[24],> 10 µM
same,TGI,[25],> 10 µM
same,TGI,[26],> 10 µM
same,TGI,[27],> 10 µM
same,TGI,[28],> 10 µM
same,TGI,[29],> 10 µM
same,TGI,[30],> 10 µM
same,TGI,[31],> 10 µM
same,TGI,[32],> 10 µM
same,TGI,[33],> 10 µM
same,TGI,[34],> 10 µM
same,TGI,[35],> 10 µM
same,TGI,[36],> 10 µM
same,TGI,[37],> 10 µM
same,TGI,[38],> 10 µM
same,TGI,[39],> 10 µM
same,TGI,[40],> 10 µM
same,TGI,[41],> 10 µM
same,TGI,[42],> 10 µM
same,TGI,[43],> 10 µM
same,TGI,[44],> 10 µM
same,TGI,[45],> 10 µM
same,TGI,[46],> 10 µM
same,TGI,[47],> 10 µM
same,TGI,[48],> 10 µM
same,TGI,[49],> 10 µM
same,TGI,[50],> 10 µM
same,TGI,[51],> 10 µM
same,TGI,[52],> 10 µM
same,TGI,[53],> 10 µM
same,TGI,[54],> 10 µM
same,TGI,[55],> 10 µM
same,TGI,[56],> 10 µM
same,TGI,[57],> 10 µM
same,TGI,[58],> 10 µM
O=C(O)c1c(CC(Cc2ccc3c(c2)CCCC3)C(=O)O)ccc2c1CCCC2 (stereo not given),TGI,[1],> 100 µM
same,TGI,[2],> 100 µM
same,TGI,[3],> 100 µM
same,TGI,[4],> 100 µM
same,TGI,[5],> 100 µM
same,TGI,[6],> 100 µM
same,TGI,[7],> 100 µM
same,TGI,[8],> 100 µM
same,TGI,[9],> 100 µM
same,TGI,[10],> 100 µM
same,TGI,[11],> 100 µM
same,TGI,[12],> 100 µM
same,TGI,[13],> 100 µM
same,TGI,[14],> 100 µM
same,TGI,[15],> 100 µM
same,TGI,[16],> 100 µM
same,TGI,[17],> 100 µM
same,TGI,[18],> 100 µM
same,TGI,[19],> 100 µM
same,TGI,[20],> 100 µM
same,TGI,[21],> 100 µM
same,TGI,[22],> 100 µM
same,TGI,[23],> 100 µM
same,TGI,[24],> 100 µM
same,TGI,[25],> 100 µM
same,TGI,[26],> 100 µM
same,TGI,[27],> 100 µM
same,TGI,[28],> 100 µM
same,TGI,[29],> 100 µM
same,TGI,[30],> 100 µM
same,TGI,[31],> 100 µM
same,TGI,[32],> 100 µM
same,TGI,[33],> 100 µM
same,TGI,[34],> 100 µM
same,TGI,[35],> 100 µM
same,TGI,[59],> 100 µM
same,TGI,[36],> 100 µM
same,TGI,[37],> 100 µM
same,TGI,[38],> 100 µM
same,TGI,[39],> 100 µM
same,TGI,[40],> 100 µM
same,TGI,[41],> 100 µM
same,TGI,[42],> 100 µM
same,TGI,[44],> 100 µM
same,TGI,[45],> 100 µM
same,TGI,[46],> 100 µM
same,TGI,[47],> 100 µM
same,TGI,[48],> 100 µM
same,TGI,[49],> 100 µM
same,TGI,[50],> 100 µM
same,TGI,[51],> 100 µM
same,TGI,[52],> 100 µM
same,TGI,[53],> 100 µM
same,TGI,[54],> 100 µM
same,TGI,[55],> 100 µM
same,TGI,[56],> 100 µM
same,TGI,[58],> 100 µM
